In patent US8637511B2, “Aminopyrimidines useful as kinase inhibitors” (Vertex Pharmaceuticals Incorporated, priority 2005, dated 2014):
“And” between values parts separate entries of the source, which are not always exact repeats. Equal values may be shown once. Read-outs that look alike come from different tables or passages of the source.

What was measured:
Colo205 cells = assay: Analysis of cell proliferation and viability; type: cell-based; settings: Homo sapiens, read-out: IC50 value
Aurora-2 (Aurora A) = target: T1, Aurora-2 (Aurora A) (Homo sapiens, UniProt O14965); assay: Aurora-2 (Aurora A) inhibition assay, coupled enzyme; type: biochemical
T1 sequence (O14965 1-403): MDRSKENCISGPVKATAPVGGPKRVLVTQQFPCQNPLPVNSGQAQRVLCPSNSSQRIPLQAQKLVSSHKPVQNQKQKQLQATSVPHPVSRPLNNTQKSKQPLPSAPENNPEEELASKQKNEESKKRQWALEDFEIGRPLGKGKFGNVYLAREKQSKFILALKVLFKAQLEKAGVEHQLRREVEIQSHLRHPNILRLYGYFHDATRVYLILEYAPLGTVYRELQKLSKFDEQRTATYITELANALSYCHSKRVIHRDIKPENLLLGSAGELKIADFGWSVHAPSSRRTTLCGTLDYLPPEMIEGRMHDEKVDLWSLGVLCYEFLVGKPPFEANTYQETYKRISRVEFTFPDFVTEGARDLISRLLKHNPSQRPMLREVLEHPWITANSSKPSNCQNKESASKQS
In short: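 Coupled pyruvate kinase/lactate dehydrogenase assay with NADH in pH 7.5 Hepes containing MgCl2, DTT and NaCl, using 40 nM Aurora-2 at 30 °C. After a 10 min preincubation, enzyme addition started the reaction, and initial rates were taken over 10 min. IC50 and Ki came from non-linear regression.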

JAK3 = target: T2, JAK3 (Homo sapiens, UniProt P52333); assay: biochemical
T2 sequence (P52333 1-1124): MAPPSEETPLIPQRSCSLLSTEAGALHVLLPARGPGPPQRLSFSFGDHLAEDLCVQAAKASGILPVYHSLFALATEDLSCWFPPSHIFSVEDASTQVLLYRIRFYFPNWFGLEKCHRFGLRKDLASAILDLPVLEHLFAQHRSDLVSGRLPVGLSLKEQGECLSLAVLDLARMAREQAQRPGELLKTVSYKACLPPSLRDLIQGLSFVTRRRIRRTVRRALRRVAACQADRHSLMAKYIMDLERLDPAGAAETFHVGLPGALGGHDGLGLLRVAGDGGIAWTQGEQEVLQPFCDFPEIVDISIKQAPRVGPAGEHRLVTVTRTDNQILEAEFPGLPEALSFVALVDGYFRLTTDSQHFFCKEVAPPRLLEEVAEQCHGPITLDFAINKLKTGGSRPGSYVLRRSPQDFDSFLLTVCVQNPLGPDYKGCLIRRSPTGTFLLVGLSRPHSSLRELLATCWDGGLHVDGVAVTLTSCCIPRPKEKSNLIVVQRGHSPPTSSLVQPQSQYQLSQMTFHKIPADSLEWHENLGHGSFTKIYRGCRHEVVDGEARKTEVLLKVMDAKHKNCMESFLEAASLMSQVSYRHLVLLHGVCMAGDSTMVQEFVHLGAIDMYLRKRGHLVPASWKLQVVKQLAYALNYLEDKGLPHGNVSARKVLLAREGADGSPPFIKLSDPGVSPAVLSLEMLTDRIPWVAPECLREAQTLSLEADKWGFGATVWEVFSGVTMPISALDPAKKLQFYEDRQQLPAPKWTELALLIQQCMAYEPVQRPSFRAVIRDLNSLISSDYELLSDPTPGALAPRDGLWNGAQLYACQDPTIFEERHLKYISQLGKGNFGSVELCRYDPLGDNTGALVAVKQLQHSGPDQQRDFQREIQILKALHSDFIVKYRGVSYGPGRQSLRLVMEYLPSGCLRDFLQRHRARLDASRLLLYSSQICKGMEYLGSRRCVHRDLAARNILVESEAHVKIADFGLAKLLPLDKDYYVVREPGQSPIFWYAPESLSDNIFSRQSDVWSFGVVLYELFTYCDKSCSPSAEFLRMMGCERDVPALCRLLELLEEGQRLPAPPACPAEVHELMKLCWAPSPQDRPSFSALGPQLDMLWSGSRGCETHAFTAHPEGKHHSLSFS
Protocol: Reactions were carried out in a kinase buffer containing 100 mM HEPES (pH 7.4), 1 mM DTT, 10 mM MgCl2, 25 mM NaCl, and 0.01% BSA. Substrate concentrations in the assay were 5 μM ATP (200 uCi/μmole ATP) and 1 μM poly(Glu)4Tyr. Reactions were carried out at 25° C. and 1 nM JAK3.
To each well of a 96 well polycarbonate plate was added 1.5 μl of a candidate JAK3 inhibitor along with 50 μl of kinase buffer containing 2 μM poly(Glu)4Tyr and 10 μM ATP. This was then mixed and 50 μl of kinase buffer containing 2 nM JAK3 enzyme was added to start the reaction. After 20 minutes at room temperature (25 C), the reaction was stopped with 50 μl of 20% trichloroacetic acid (TCA) that also contained 0.4 mM ATP. The entire contents of each well were then transferred to a 96 well glass fiber filter plate using a TomTek Cell Harvester. After washing, 60 μl of scintillation fluid was added and ^33P incorporation detected on a Perkin Elmer TopCount.

Aurora-1 (Aurora B) = Aurora-1 (Aurora B) (Homo sapiens, UniProt Q96GD4); assay: Aurora-1 (Aurora B) inhibition assay (radiometric); type: biochemical
Aurora-1 (Aurora B), sequence (Q96GD4 whole entry): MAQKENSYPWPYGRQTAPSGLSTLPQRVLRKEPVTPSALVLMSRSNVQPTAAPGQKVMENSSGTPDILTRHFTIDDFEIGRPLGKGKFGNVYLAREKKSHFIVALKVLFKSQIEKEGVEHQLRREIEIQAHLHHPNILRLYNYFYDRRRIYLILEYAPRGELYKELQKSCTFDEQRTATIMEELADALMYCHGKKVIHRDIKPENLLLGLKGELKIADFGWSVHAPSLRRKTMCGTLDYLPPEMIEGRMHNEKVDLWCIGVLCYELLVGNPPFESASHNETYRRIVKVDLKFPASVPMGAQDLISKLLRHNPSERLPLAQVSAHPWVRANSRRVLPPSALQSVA
In short: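 Radiometric ^33P incorporation into peptide substrate, with [γ-^33P]-ATP at 800 μM final, in 25 mM HEPES pH 7.5, 10 mM MgCl2, 0.1% BSA, 10% glycerol. Compound preincubated with enzyme for 10 min at 25° C, reaction run 3 h, then captured on phosphocellulose. Ki from initial rates by non-linear regression after background subtraction.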

[1] = COLO 205, Colo205 cells, incubated for 96 hours
[2] = read-out: Aurora A kinase Ki value
[3] = read-out: Aurora B kinase Ki value
[4] = COLO 205, Colo205 cells, incubated for 72 hours

Row | Structure (SMILES) | IC50 (Colo205 cells; [1]) [nM] | Ki (Aurora-2 (Aurora A); [2]) [nM] | Ki (JAK3) [nM] | Ki (Aurora-1 (Aurora B); [3]) | Ki (JAK3; read-out: JAK3 Ki value) [nM] | IC50 (Colo205 cells; [4]) [nM] | Ki (Aurora-1 (Aurora B); Aurora B kinase Ki value) | Ki (Aurora-2 (Aurora A)) [nM] | IC50 (Colo205 cells; COLO 205, 96 h) [nM]
1 | Cc1cnc(Nc2cc(N3CC(N(C)C)C3)nc(Sc3ccc(NC(=O)C4CC4)cc3)n2)s1 [Compound 1] | 50 to 1000 | 5 to 200 | 10 to 500 | 10 to 50 nM | – | – | – | – | –
2 | Cc1cnc(Nc2cc(N3CC(N)C3)nc(Sc3ccc(NC(=O)C4CC4)cc3)n2)s1 [Compound 2] | 50 to 1000 | 5 to 200 | 500 to 2000 | 50 to 2000 nM | – | – | – | – | –
3 | Cc1cnc(Nc2cc(N3CC(O)C3)nc(Sc3ccc(NC(=O)C4CC4)cc3)n2)s1 [Compound 3] | > 1000 | 1 to 5 | – | ≤ 10 nM | 10 to 500 | – | – | – | –
4 | Cc1cnc(Nc2cc(N3CCC3)nc(Sc3ccc(NC(=O)C4CC4)cc3)n2)s1 [Compound 4] | 50 to 1000 | 1 to 5 | 500 to 2000 | 50 to 2000 nM | – | – | – | – | –
5 | CC1=NN=C(Nc2cc(N3CCC3)nc(Sc3ccc(NC(=O)c4ccccc4Cl)cc3)n2)C1 [Compound 5] | 50 to 1000 | ≤ 1 | – | ≤ 10 nM | 10 to 500 | 30 to 200 | – | – | –
6 | CC1=NN=C(Nc2cc(N3CCC3)nc(Sc3ccc(NC(=O)C4CCCN4C)cc3)n2)C1 (centres unmarked) [Compound 6] | 50 to 1000 | 5 to 200 | – | – | – | – | 10 to 50 nM and < 25 nM | – | –
7 | Cc1cc(Nc2cc(N3CCC3)nc(Sc3ccc(NC(=O)c4c(F)cccc4N4CCC4)cc3)n2)n[nH]1 [Compound 8] | 50 to 1000 | 1 to 5 | 10 to 500 | ≤ 10 nM | – | – | – | – | –
8 | Cc1cc(Nc2cc(N3CCC3)nc(Sc3ccc(N(C)C(=O)c4ccccc4F)cc3)n2)n[nH]1 [Compound 10] | – | 5 to 200 | 10 to 500 | 50 to 2000 nM | – | – | – | – | –
9 | COC1CN(c2cc(Nc3cc(C)[nH]n3)nc(Sc3ccc(NC(=O)c4ccccc4Cl)cc3)n2)C1 [Compound 12] | ≤ 50 | – | ≤ 10 | ≤ 10 nM | – | – | – | ≤ 1 | –
10 | CCC(=O)Nc1ccc(Sc2nc(Nc3cc(C)[nH]n3)cc(N3CCC3)n2)cc1 [Compound 14] | – | 1 to 5 | – | 10 to 50 nM and < 25 nM | 10 to 500 | – | – | – | 50 to 1000
11 | CCC(=O)Nc1ccc(Sc2nc(Nc3cc(C)[nH]n3)cc(N3CC(O)C3)n2)cc1 [Compound 15] | 50 to 1000 | – | 10 to 500 | 10 to 50 nM and < 25 nM | – | – | – | 1 to 5 | –
12 | Cc1cc(Nc2cc(N3CC(C#N)C3)nc(Sc3ccc(NC(=O)c4ccccc4Cl)cc3)n2)n[nH]1 [Compound 16] | 50 to 1000 | ≤ 1 | 10 to 500 | ≤ 10 nM | – | 30 to 200 | – | – | –
13 | Cc1cc(Nc2cc(N3CCC3)nc(Sc3ccc(NC(=O)C4CC4)cc3)n2)n[nH]1 [Compound 17] | 50 to 1000 | 1 to 5 | 10 to 500 | 10 to 50 nM | – | – | – | – | –
14 | Cc1cc(Nc2cc(N3CCC3)nc(Sc3ccc(C(=O)NCc4ccccc4)cc3)n2)n[nH]1 [Compound 19] | > 1000 | – | 10 to 500 | ≤ 10 nM | – | – | – | 5 to 200 | –
15 | CCNC(=O)c1ccc(Sc2nc(Nc3cc(C)[nH]n3)cc(N3CCC3)n2)cc1 [Compound 20] | 50 to 1000 | – | 10 to 500 | 10 to 50 nM | – | – | – | 5 to 200 | –
16 | Cc1cc(Nc2cc(N3CCC3)nc(Sc3ccc(C(=O)N4CCCC4)cc3)n2)n[nH]1 [Compound 22] | > 1000 | – | 10 to 500 | 50 to 2000 nM | – | – | – | 5 to 200 | –
17 | Cc1cc(Nc2cc(N3CCC3)nc(Sc3ccc(C(=O)NC4CCCC4)cc3)n2)n[nH]1 [Compound 23] | > 1000 | 5 to 200 | 500 to 2000 | 50 to 2000 nM | – | – | – | – | –
